In publication PMC8623418, “Novel Multitarget Hydroxamic Acids with a Natural Origin CAP Group against Alzheimer’s Disease: Synthesis, Docking and Biological Evaluation” (Pharmaceutics, 2021):
Where two headings read alike, the source gives them in different places.

Columns and labels:
[1] = system: lipid peroxidation (LPO) of rat brain homogenate; assay: Lipid peroxidation (LPO) of rat brain homogenate, TBARS test; format: biochemical; settings: substances at 100 μM, mean ± SEM; for % of Activity, Inhibition of LPO, Fe (II): Fe (II)-induced; for % of Activity, Inhibition of LPO, t-BHP: t-BHP-induced
Protocol: To obtain the brain homogenate, rats preliminarily anesthetized with CO2 were decapitated with a guillotine. The brain was homogenized in a buffer containing KCl (120 mM) and HEPES (20 mM), pH = 7.4 at 4 °C, and centrifuged at 1500 rpm to obtain a supernatant. The protein was quantified according to the standard microbiuret method.
To investigate the effect of the compounds on lipid peroxidation (LPO) of rat brain homogenate, we used the modified version of the TBARS test, which is based on the reaction of 2-thiobarbituric acid with the end LPO product—malonic dialdehyde (MDA). The plate well, according to the experimental scheme, contained the compounds under study (100 μM), rat brain homogenate (2 mg/mL), as well as ferrous iron ions ([…]) at a concentration of 500 μM and 1.6 mM tert-butyl hydroxyperoxide as an initiator. After 30 min of incubation at 37 °C, TBARS reagent was added to all samples, incubated for 90 min at 90 °C, and centrifuged at 6000 rpm for 15 min. The optical density of the selected supernatant was measured on a Victor 3 plate reader (Perkin Elmer) at λ = 540 nm.
A rat brain homogenate preparation containing fragments of cell membranes was used as a model system to investigate the antioxidant activity of the hydroxamic acids. To initiate the process of lipid peroxidation, ferrous ions were used to trigger the Fenton reaction, during which the iron valence changes and a highly reactive hydroxyl radical is formed, and tert-butyl hydroxyperoxide as a direct source of free radicals.

[2] = DPPH test of antiradical activity; settings: substances at 100 μM, mean ± SEM
Protocol: The DPPH test was used to examine antiradical activity based on the ability of a stable chromogen radical of 2,2-diphenyl-1-picrylhydrazyl (DPPH) to remove a hydrogen atom, which is accompanied by a change in the absorption maximum in the electronic absorption spectra. The amount of reduced DPPH was measured using a Cytation ™ 3 multifunctional plate analyzer (BioTek Instruments, Inc., Winooski, VT, USA) at a wavelength of 517 nm.
The antiradical activity of the test compounds was evaluated by the DPPH test, based on the ability of antioxidants to donate an electron to the stable chromogen radical DPPH, converting it into a nonradical form and neutralizing its activity. […] The chromogenic free radical DPPH used in this test has a large size, and substances even with a similar chemical structure may have different antiradical properties due to spatially difficult access.

HEK 293 cells = assay: MTT cell viability, HEK 293; format: cell-based; settings: Homo sapiens, HEK293; HEK-293, MTT test
Protocol: (§1) The effect of the hydroxamic acids on the viability of cells obtained from human embryonic kidneys, HEK 293, as well as the native form of human neuroblastoma, SH-SY5Y, was evaluated in the MTT test. Using a multifunctional flatbed analyzer, Cytation™3 (BioTek Instruments, Inc., Winooski, VT, USA), the optical density was determined at a wavelength of 530 nm. Based on the dose-dependent curves, the concentration values leading to 50% inhibition of cell population growth (IC50) were calculated.
(§2) Due to the fact that most compounds of the class of hydroxamic acids have high cytotoxic activity and are mainly used as anticancer drugs, their use as neuroprotective drugs is limited. Since the goal of our work was to search for agents for the pharmacological correction of neurodegenerative diseases, a necessary part of the biological activity study of the synthesized hydroxamic acids was to determine their effect on the survival of cell cultures. In our work, we used neuron-like neuroblastoma cells SH-SY5Y and a healthy cell line isolated from the human embryonic kidney, HEK 293.

SH-SY5Y cells = assay: MTT cell viability, SH-SY5Y; format: cell-based; settings: Homo sapiens, MTT test
Protocol: as §1, §2

HDAC6 = biological target: T1, HDAC6 (Homo sapiens, UniProt Q9UBN7); assay: HDAC6 enzyme activity, FLUOR DE LYS fluorometric kit; format: biochemical
T1 construct: purchased Enzo Life Sciences (Enzo Biochem, New York, NY, USA)
T1 sequence (Q9UBN7 1-1215): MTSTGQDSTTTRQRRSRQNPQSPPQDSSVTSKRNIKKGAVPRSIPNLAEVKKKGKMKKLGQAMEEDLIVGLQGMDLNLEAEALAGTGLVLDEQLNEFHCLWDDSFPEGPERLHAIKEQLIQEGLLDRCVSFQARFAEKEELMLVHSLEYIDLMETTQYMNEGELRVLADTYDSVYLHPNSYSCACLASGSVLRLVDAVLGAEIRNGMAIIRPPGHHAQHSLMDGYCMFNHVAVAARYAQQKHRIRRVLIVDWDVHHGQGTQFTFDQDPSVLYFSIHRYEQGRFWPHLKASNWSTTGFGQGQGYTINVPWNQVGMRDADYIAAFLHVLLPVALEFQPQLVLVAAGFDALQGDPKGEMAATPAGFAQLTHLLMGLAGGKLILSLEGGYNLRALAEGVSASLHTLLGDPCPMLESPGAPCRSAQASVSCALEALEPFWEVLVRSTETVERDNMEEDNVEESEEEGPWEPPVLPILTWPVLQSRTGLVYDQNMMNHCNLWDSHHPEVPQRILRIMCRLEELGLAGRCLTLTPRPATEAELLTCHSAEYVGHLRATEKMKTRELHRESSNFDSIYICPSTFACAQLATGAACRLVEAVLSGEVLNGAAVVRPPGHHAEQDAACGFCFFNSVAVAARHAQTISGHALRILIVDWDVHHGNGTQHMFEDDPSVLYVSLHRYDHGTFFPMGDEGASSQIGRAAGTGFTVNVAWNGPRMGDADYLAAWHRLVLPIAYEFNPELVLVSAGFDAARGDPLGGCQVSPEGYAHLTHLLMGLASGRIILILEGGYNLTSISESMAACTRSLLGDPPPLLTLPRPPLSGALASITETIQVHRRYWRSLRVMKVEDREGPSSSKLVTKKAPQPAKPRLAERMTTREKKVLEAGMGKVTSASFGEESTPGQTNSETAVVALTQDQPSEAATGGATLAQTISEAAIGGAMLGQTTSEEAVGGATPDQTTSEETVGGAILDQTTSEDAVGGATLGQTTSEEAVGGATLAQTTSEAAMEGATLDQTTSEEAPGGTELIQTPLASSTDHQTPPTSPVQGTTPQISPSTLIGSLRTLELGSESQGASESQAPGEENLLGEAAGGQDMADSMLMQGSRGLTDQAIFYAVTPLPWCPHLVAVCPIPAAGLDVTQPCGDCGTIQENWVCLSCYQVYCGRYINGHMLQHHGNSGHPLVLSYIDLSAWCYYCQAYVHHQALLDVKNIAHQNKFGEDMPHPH

β-amyloid 1–42 = system: T2, β-amyloid 1–42; assay: β-amyloid 1–42 aggregation, Thioflavin T fluorescence; format: biochemical; settings: 100 μM, 72 h incubation
T2 construct: fragments Aβ1–40 and Aβ1–42
Protocol: (§3) The effect of the studied compounds on the aggregation of β-amyloid (1–40/1–42) was analyzed using the method of recording Thioflavin T fluorescence (10 µM) for 72 h at 37 °C. The fluorescence signal was measured using a multifunctional flatbed analyzer, the Cytation ™ 3 (BioTek Instruments, Inc., Winooski, VT, USA), at λex = 450 nm, λem = 480 nm.
(§4) The effect of hydroxamic acids on the stage of aggregation of the pathological β-amyloid peptide was investigated for 72 h using two model systems—fragments Aβ1–40 and Aβ1–42. The fluorophore Thioflavin T was used as an indicator of the ongoing fibrillation process, the interaction of which with proteins in the state of amyloid fibrils leads to an increase in the fluorescence signal.

β-amyloid 1–40 = β-amyloid 1–40 aggregation, Thioflavin T fluorescence; format: biochemical; settings: 100 μM, 72 h incubation
Protocol: as §3, §4

[3] = mean ± SEM, read-out: IC50 HDAC6 Inhibitory Activity

melting point | IC50 (SH-SY5Y cells) | IC50 (HDAC6; [3]) | IC50 (HDAC6; Table S2, used for correlation with pKi, read-out: pIC50 (from experimental HDAC6 IC50) (converted)) | Compound | % of Activity, Inhibition of LPO, Fe (II) [1] | % of Activity, Inhibition of LPO, t-BHP [1] | % of Activity, Antiradical Activity [2] | IC50 (HEK 293 cells) | Effect on β-amyloid 1–42 aggregation (β-amyloid 1–42) | Effect on β-amyloid 1–40 aggregation (β-amyloid 1–40)
149 to 149.3 °C | > 100 µM |  |  | O=C(NO)C12CC3CC(CC(C3)C1)C2 [compound 1, N-Hydroxyadamantane-1-Carboxamide] | - (The ‘-’ mark indicates the lack of activity of the test substances (≤10%) in a particular test) | - (The ‘-’ mark indicates the lack of activity of the test substances (≤10%) in a particular test) | - (The ‘-’ mark indicates the lack of activity of the test substances (≤10%) in a particular test) | > 100 µM |  | 
44.9 °C | > 100 µM | 4.48 ± 0.13 µM |  | CC1(C)[C@H]2CC[C@](C)(C2)[C@H]1NC(=O)CCCCCCCC(=O)NO [compound 14, N^1-Hydroxy-N^9-((1R,2R,4S)-1,3,3-Trimethylbicyclo[2.2.1]heptan-2-yl)nonanediamide] | 37.91 ± 1.08% | 22.62 ± 4.31% | - (The ‘-’ mark indicates the lack of activity of the test substances (≤10%) in a particular test) | > 100 µM |  | 
45.1 °C | > 100 µM | 9.44 ± 0.74 µM |  | CC1(C)[C@H]2CC[C@](C)(C2)[C@H]1NC(=O)CCCCCCC(=O)NO [compound 13, N^1-Hydroxy-N^8-((1R,2R,4S)-1,3,3-Trimethylbicyclo[2.2.1]heptan-2-yl)octanediamide] | 28.90 ± 3.38% | 24.02 ± 3.44% | - (The ‘-’ mark indicates the lack of activity of the test substances (≤10%) in a particular test) | > 100 µM |  | 
173.4 °C | > 100 µM |  |  | O=C(NO)C1C2CC3CC(C2)CC1C3 (stereo not drawn) [compound 2, N-Hydroxyadamantane-2-Carboxamide] | - (The ‘-’ mark indicates the lack of activity of the test substances (≤10%) in a particular test) | - (The ‘-’ mark indicates the lack of activity of the test substances (≤10%) in a particular test) | 32.02 ± 3.33% | > 100 µM |  | 
50.4 °C | > 100 µM | 4.06 ± 0.48 µM |  | CC1(C)[C@@H]2CC[C@@]1(C)[C@H](NC(=O)CCCCCCCC(=O)NO)C2 [compound 12, N^1-Hydroxy-N^9-((1R,2R,4R)-1,7,7-Trimethylbicyclo [2.2.1]heptan-2-yl)nonanediamide] | 44.02 ± 1.57% | 30.36 ± 1.98% | - (The ‘-’ mark indicates the lack of activity of the test substances (≤10%) in a particular test) | > 100 µM |  | 

Second part, the compound before the results:

Compound | melting point | IC50 (SH-SY5Y cells) | IC50 (HDAC6; [3]) | IC50 (HDAC6; Table S2, used for correlation with pKi, read-out: pIC50 (from experimental HDAC6 IC50) (converted)) | % of Activity, Inhibition of LPO, Fe (II) [1] | % of Activity, Inhibition of LPO, t-BHP [1] | % of Activity, Antiradical Activity [2] | IC50 (HEK 293 cells) | Effect on β-amyloid 1–42 aggregation (β-amyloid 1–42) | Effect on β-amyloid 1–40 aggregation (β-amyloid 1–40)
Cc1c(C)c2c(c(C)c1O)CCC(C)(C(=O)O)O2 (stereo not drawn) [Trolox, reference compound] |  |  |  |  | 97.21 ± 4.09% | 99.11 ± 3.72% |  |  |  | 
CC1(C)C(NC(=O)/C=C/c2ccc(C(=O)NO)cc2)[C@@]2(C)CC[C@H]1C2 (stereo partly drawn) [compound 24, N-Hydroxy-4-((E)-3-Oxo-3-(((1S,4S)-1,3,3-Trimethylbicyclo[2.2.1]heptan-2-yl)amino)prop-1-en-1-yl)benzamide] |  | 52 ± 2.61 µM | ≤ 6.5 µM | 15.3 µM | 34.16 ± 1.37% | 20.63 ± 3.92% | 20.32 ± 0.41% | 60.2 ± 1 µM | noticeable fibrillation inhibition | noticeable fibrillation inhibition
CC(/C=C/C(=O)NO)=C\[C@@H](C)C(=O)c1ccc(N(C)C)cc1 [Trich. A, Trichostatin A, reference compound] |  |  |  |  | - (The ‘-’ mark indicates the lack of activity of the test substances (≤10%) in a particular test) | - (The ‘-’ mark indicates the lack of activity of the test substances (≤10%) in a particular test) | - (The ‘-’ mark indicates the lack of activity of the test substances (≤10%) in a particular test) |  |  | 
CC1(C)[C@@H]2CC[C@@]1(C)[C@H](NC(=O)CCCCCCC(=O)NO)C2 [compound 11, N^1-Hydroxy-N^8-((1R,2R,4R)-1,7,7-Trimethylbicyclo [2.2.1]heptan-2-yl)octanediamide] | 94.8 °C | 51.9 ± 3.56 µM | 0.69 ± 0.02 µM |  | 28.39 ±7.41% | 35.96 ± 1.99% | 22.22 ± 1.40% | > 100 µM |  | 
